Measured values reported in the supplement of paper PMC10331698.
± gives the standard deviation of the averaged measurements.

How the values were obtained:
Assay in all cases: level (log10 ratio to DMSO vehicle control); higher = higher biomarker level / cell amount than vehicle control
Details in all cases: in DMSO
[1] = compound: C=C(C)C(=O)OCC(F)(F)C(F)(F)C(F)(F)C(F)(F)C(F)(F)C(F)(F)C(F)(F)F
Method: (§1)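 BioMAP Diversity Plus panel of 12 human primary cell co-culture systems (3C, 4H, LPS, SAg, BT, BF4T, BE3C, CASM3C, HDF3CGF, KF3CT, MyoF, Mphg). Compounds were added 1 h before stimulation and left for 24 h (MyoF 48 h; BT 72 h for soluble read-outs or 6 d for IgG). Biomarkers were read by ELISA, cytotoxicity by SRB, PBMC viability and proliferation by Alamar Blue. Each well value was divided by the mean of 8 DMSO control wells on the same plate and log10 transformed; duplicate blinded samples were tested at 4 concentrations.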

[2] = compound: O=C(O)C(F)(F)C(F)(F)C(F)(F)C(F)(F)C(F)(F)C(F)(F)C(F)(F)C(F)(F)C(F)(F)C(F)(F)C(F)(F)C(F)(F)C(F)(F)F [Perfluorotetradecanoic acid]
Method: as §1

[3] = compound: O=C(O)CCC(F)(F)C(F)(F)C(F)(F)F [3:3 Fluorotelomer carboxylic acid]
Method: as §1

Azathioprine = compound: Cn1cnc([N+](=O)[O-])c1Sc1ncnc2[nH]cnc12 [Azathioprine]
Method: as §1

[4] = compound: C=CC(=O)OCCC(F)(F)C(F)(F)C(F)(F)C(F)(F)F [2-(Perfluorobutyl)ethyl acrylate]
Method: as §1

[5] = compound: O=C(O)C(F)(F)C(F)(F)C(F)(F)C(F)(F)C(F)(F)C(F)(F)C(F)(F)C(F)(F)C(F)(F)C(F)(F)C(F)(F)C(F)(F)F [Perfluorotridecanoic acid]
Method: as §1

Test System | level (log10) ([1]; 6700 nM) | level (log10) ([1]; 20000 nM) | level (log10) ([2]; 6700 nM) | level (log10) ([2]; 20000 nM) | level (log10) ([3]; 6700 nM) | level (log10) ([3]; 20000 nM) | level (log10) ([3]; 60000 nM) | level (log10) (Azathioprine; 1400 nM) | level (log10) (Azathioprine; 4200 nM) | level (log10) (Azathioprine; 13000 nM) | level (log10) (Azathioprine; 38000 nM) | level (log10) ([4]; 6700 nM) | level (log10) ([4]; 20000 nM) | level (log10) ([4]; 60000 nM) | level (log10) ([5]; 1500 nM) | level (log10) ([5]; 4400 nM) | level (log10) ([5]; 13000 nM) | level (log10) ([5]; 40000 nM)
HDF3CGF:TIMP-1 | 0.041 ± 0.038 | 0.036 ± 0.03 | 0.014 ± 0.037 | -0.0385 ± 0.11 | 0.0025 ± 0.019 | 0.004 | 0.0015 ± 0.0035 | -0.0195 ± 0.005 | -0.0115 ± 0.033 | -0.018 ± 0.024 | -0.0695 ± 0.06 | -0.0375 ± 0.033 | -0.0285 ± 0.0064 | -0.053 ± 0.03 | 0.027 ± 0.028 | -0.0075 ± 0.044 | -0.023 ± 0.069 | -0.04 ± 0.051
HDF3CGF:TIMP-2 | 0.0535 ± 0.0092 | 0.0035 ± 0.056 | 0.091 ± 0.0085 | 0.036 ± 0.05 | -0.0075 ± 0.023 | -0.0015 ± 0.0035 | -0.0195 ± 0.0064 | -0.0175 ± 0.00071 | -0.023 ± 0.048 | 0.0315 ± 0.056 | 0.049 ± 0.018 | -0.0725 ± 0.057 | -0.0805 ± 0.047 | -0.0995 ± 0.035 | 0.0455 ± 0.043 | 0.0415 ± 0.084 | 0.102 ± 0.019 | 0.0095 ± 0.013
KF3CT:CCL2/MCP-1 | -0.016 ± 0.025 | 0.0325 ± 0.03 | 0.004 ± 0.0071 | 0.0205 ± 0.0078 | -0.005 ± 0.025 | -0.0135 ± 0.016 | 0.0225 ± 0.046 | -0.0045 ± 0.0092 | -0.008 ± 0.0099 | -0.0335 ± 0.015 | -0.015 ± 0.0014 | -0.036 ± 0.0099 | -0.0515 ± 0.0035 | -0.028 ± 0.086 | 0.003 ± 0.076 | -0.007 ± 0.02 | -0.021 ± 0.031 | 0.018 ± 0.0042
KF3CT:CD54/ICAM-1 | 0.0045 ± 0.019 | -0.018 ± 0.031 | -0.003 ± 0.027 | -0.0375 ± 0.015 | -0.0055 ± 0.0092 | -0.008 ± 0.0014 | 0.001 ± 0.028 | -0.02 ± 0.0028 | 0.0015 ± 0.0092 | -0.005 ± 0.0085 | 0.0045 ± 0.011 | -0.0085 ± 0.0092 | -0.0245 ± 0.0078 | -0.054 ± 0.0099 | -0.03 ± 0.013 | -0.019 | -0.0285 ± 0.026 | 0.015 ± 0.017
KF3CT:CXCL8/IL-8 | -0.0025 ± 0.019 | 0.009 ± 0.033 | 0.0005 ± 0.013 | 0.0245 ± 0.025 | 0.0005 ± 0.022 | -0.0035 ± 0.0092 | -0.0005 ± 0.0064 | -0.0045 ± 0.015 | -0.0225 ± 0.025 | -0.0545 ± 0.019 | -0.0335 ± 0.016 | -0.0095 ± 0.021 | -0.003 ± 0.0014 | -0.0105 ± 0.018 | -0.0035 ± 0.04 | -0.009 ± 0.037 | -0.006 ± 0.033 | -0.0315 ± 0.06
KF3CT:CXCL9/MIG | 0.007 ± 0.0028 | 0.006 ± 0.0028 | -0.0065 ± 0.016 | 0.0055 ± 0.00071 | 0 ± 0.0099 | 0.0055 ± 0.015 | 0.005 ± 0.0028 | -0.0015 ± 0.00071 | -0.008 ± 0.0014 | -0.005 ± 0.0099 | 0.0205 ± 0.015 | -0.0035 ± 0.0021 | 0.008 ± 0.0042 | -0.0235 ± 0.015 | -0.002 ± 0.0071 | -0.0015 ± 0.005 | -0.0035 ± 0.0064 | -0.0685 ± 0.079
KF3CT:CXCL10/IP-10 | 0.0075 ± 0.005 | -0.015 ± 0.011 | 0.0065 ± 0.016 | -0.0165 ± 0.016 | -0.0015 ± 0.0035 | -0.008 ± 0.0057 | -0.0045 ± 0.0035 | 0.0135 ± 0.00071 | -0.0035 ± 0.0021 | -0.0105 ± 0.011 | -0.0035 ± 0.019 | -0.009 ± 0.0057 | -0.0125 ± 0.022 | -0.0285 ± 0.0078 | -0.009 ± 0.0071 | -0.011 ± 0.0028 | -0.015 ± 0.017 | -0.06 ± 0.044
KF3CT:IL-1alpha | -0.014 ± 0.023 | 0.0015 ± 0.0092 | -0.0135 ± 0.081 | -0.0235 ± 0.054 | -0.0065 ± 0.059 | 0.0035 ± 0.023 | 0.0135 ± 0.019 | -0.015 ± 0.0099 | 0.01 ± 0.013 | 0.0115 ± 0.005 | 0.035 ± 0.0042 | -0.036 ± 0.0057 | -0.075 ± 0.013 | -0.059 ± 0.038 | -0.025 ± 0.0099 | -0.0435 ± 0.0035 | -0.074 ± 0.018 | -0.1075 ± 0.00071
KF3CT:MMP-9 | 0.012 ± 0.03 | 0.009 ± 0.027 | -0.005 ± 0.0014 | 0.0065 ± 0.032 | 0.001 ± 0.0028 | -0.001 ± 0.0042 | 0.003 ± 0.0042 | -0.008 ± 0.011 | 0.0015 ± 0.0064 | -0.0255 ± 0.0064 | -0.0375 ± 0.011 | -0.01 ± 0.02 | -0.0045 ± 0.012 | -0.022 ± 0.013 | 0.0045 ± 0.012 | -0.007 ± 0.0028 | -0.0155 ± 0.013 | -0.0265 ± 0.019
KF3CT:PAI-I | -0.004 ± 0.02 | 0.006 ± 0.0014 | -0.015 ± 0.0014 | 0 ± 0.0071 | -0.009 ± 0.031 | -0.0125 ± 0.0021 | -0.004 ± 0.0071 | 0.01 ± 0.024 | -0.0105 ± 0.015 | -0.0365 ± 0.011 | -0.071 ± 0.0071 | -0.017 ± 0.0071 | -0.005 ± 0.023 | -0.008 ± 0.0085 | -0.006 ± 0.028 | -0.0155 ± 0.015 | -0.0135 ± 0.023 | -0.052 ± 0.027
KF3CT:SRB | -0.0185 ± 0.0092 | -0.015 ± 0.011 | -0.0005 ± 0.0035 | 0.0025 ± 0.0078 | -0.0085 ± 0.00071 | -0.004 ± 0.0042 | 0.0015 ± 0.018 | 0.003 ± 0.0057 | 0.0015 ± 0.0064 | 0.001 ± 0.0057 | -0.0065 ± 0.0021 | -0.01 ± 0.0028 | -0.0095 ± 0.005 | -0.0205 ± 0.013 | 0.0015 ± 0.00071 | -0.0055 ± 0.0021 | -0.0095 ± 0.0021 | -0.035 ± 0.0042
KF3CT:TIMP-2 | 0.0115 ± 0.018 | -0.0195 ± 0.0064 | 0.0455 ± 0.032 | 0.0065 ± 0.012 | -0.002 ± 0.021 | -0.006 ± 0.0099 | -0.0025 ± 0.016 | -0.041 ± 0.013 | 0 ± 0.021 | 0.0385 ± 0.0078 | 0.0585 ± 0.011 | 0.0145 ± 0.0021 | -0.0175 ± 0.0078 | -0.009 ± 0.023 | 0.0125 ± 0.016 | 0.028 ± 0.013 | 0.0165 ± 0.022 | 0.0295 ± 0.015
KF3CT:uPA | 0.0105 ± 0.0092 | 0.009 ± 0.0085 | -0.014 ± 0.038 | 0.0115 ± 0.032 | -0.01 ± 0.017 | -0.0165 ± 0.0092 | -0.009 ± 0.0014 | 0.011 ± 0.0028 | 0.015 ± 0.016 | -0.003 ± 0.0071 | -0.0025 ± 0.0078 | -0.012 ± 0.0099 | 0.0155 ± 0.00071 | -0.0225 ± 0.00071 | 0.0005 ± 0.018 | -0.003 ± 0.011 | 0.0035 ± 0.015 | -0.0035 ± 0.011
MyoF:CD106/VCAM-1 | 0.0035 ± 0.015 | 0.019 ± 0.0099 | -0.0045 ± 0.019 | 0.013 ± 0.025 | -0.0005 ± 0.012 | -0.016 ± 0.0085 | -0.013 ± 0.0085 | -0.01 ± 0.0099 | 0.008 | -0.0165 ± 0.005 | -0.022 ± 0.014 | -0.019 ± 0.0085 | -0.044 ± 0.027 | -0.101 ± 0.045 | -0.0105 ± 0.0078 | 0.01 ± 0.0071 | -0.003 ± 0.0085 | 0.0035 ± 0.033
MyoF:CXCL8/IL-8 | -0.0215 ± 0.013 | 0.013 ± 0.014 | 0.0095 ± 0.0078 | 0.017 ± 0.0071 | -0.016 ± 0.037 | -0.0275 ± 0.05 | 0.0145 ± 0.093 | 0.009 ± 0.014 | 0.023 ± 0.017 | 0.027 ± 0.02 | 0.0395 ± 0.015 | -0.0045 ± 0.0078 | -0.0025 ± 0.016 | 0.02 ± 0.025 | -0.01 ± 0.023 | -0.0295 ± 0.0078 | -0.0275 ± 0.0021 | -0.025 ± 0.0042
MyoF:Collagen I | 0.01 | -0.007 ± 0.0071 | 0.0015 ± 0.0078 | 0.0215 ± 0.033 | -0.0005 ± 0.037 | 0.0095 ± 0.0035 | 0.0255 ± 0.026 | -0.0085 ± 0.015 | -0.0095 ± 0.013 | -0.024 | 0.011 ± 0.0028 | 0.0105 ± 0.016 | 0.01 ± 0.03 | -0.002 ± 0.025 | -0.0045 ± 0.019 | -0.0115 ± 0.016 | -0.016 ± 0.025 | -0.213 ± 0.037
